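48-hour exposure; five concentrations; linearly interpolated endpoints. GI50 marks 50% less growth. At the TGI there is no net growth.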
Legend:
Assay in all cases: DTP human tumour cell line panel, 48 h
[1] = tested on: U251 CNS
[2] = tested on: HCT-15 colon
[3] = tested on: DU-145 prostate
[4] = tested on: SN12C renal
[5] = tested on: PC-3 prostate
[6] = tested on: MALME-3M melanoma
[7] = tested on: NCI-H226 lung
[8] = tested on: CCRF-CEM leukemia
[9] = tested on: KM12 colon
[10] = tested on: COLO 205 colon

Row | Compound | GI50 [1] [µM] | TGI [1] [µM] | GI50 [2] [µM] | TGI [2] [µM] | GI50 [3] [µM] | TGI [3] [µM] | GI50 [4] [µM] | TGI [4] [µM] | GI50 [5] [µM] | TGI [5] [µM] | GI50 [6] [µM] | TGI [6] [µM] | GI50 [7] [µM] | TGI [7] [µM] | GI50 [8] [µM] | TGI [8] [µM] | GI50 [9] [µM] | TGI [9] [µM] | GI50 [10] [µM] | TGI [10] [µM]
1 | COc1cc(OC)c2sc(-c3ccc(-n4cncc4-c4ccc(OC)c(OC)c4)cc3)nc2c1 | 9.19 | > 100 | > 100 | > 100 | 27.9 | > 100 | > 100 | > 100 | 3.66 | > 100 | 59.9 | > 100 | 6.44 | > 100 | > 100 | > 100 | 6.8 | > 100 |  | 
2 | Cc1cc(NCc2cc(Nc3ccnc4cc(Cl)ccc34)ccc2F)nc(N2CCOCC2)n1 | 1.95 | 4.05 |  |  | 3.2 | 12.5 | 1.84 | 4.3 | 2.28 | 7.65 |  |  | 1.89 | 5.61 | 2.53 | 34.6 | 2.01 | 4.59 |  | 
3 | COc1ccc(Nc2nc(Nc3cc(C)[nH]n3)c3cc(OC)c(OC)cc3n2)cc1 |  |  | 0.685 | 2.45 | 1.03 | 2.24 |  |  |  |  | 1.65 | 3.19 |  |  |  |  | 0.61 | 2.09 |  | 
4 | COc1ccc(-c2cnnn2-c2nonc2-n2cccc2)cc1OC |  |  | 2.38 | > 100 | 7.95 | > 100 | 5.71 | > 100 | 14.1 | > 100 | 3.86 | > 100 | 16.2 | > 100 | 3.3 | > 100 | 2.73 | > 100 | 3.64 | 14.8
5 | C=C(CN1CCc2c([nH]c3ccccc23)C1)c1ccc(C(=O)Nc2ccccc2N)cc1 | 1.42 | 7.73 | 3.5 | 28.1 | 3.85 | 13.9 | 2.33 | 9.98 | 1.41 | 29.9 |  |  | 1.32 | 10.1 | 0.0581 | 46.3 | 3.42 | 12.6 | 6.35 | 20.9
6 | O=C1/C(=C\c2ccco2)Oc2ccccc21 |  | > 100 |  | > 100 |  | > 100 |  | > 100 |  | > 100 |  |  |  | > 100 |  | > 100 |  | > 100 |  | > 100
7 | COc1ccc(C2=NC(=O)NC2c2ccc(OC)cc2)cc1 (configuration not stated) | 7.85 | > 100 | 4.78 | > 100 | 23 | > 100 | 15.4 | > 100 |  |  | 4.91 | 68.3 | 14.8 | > 100 | 38.9 | > 100 | 4.5 | 29.5 | 6.47 | 21.3
8 | Cn1cc(-c2cc(-c3cn(C)c4ccc(Cl)cc34)[nH]n2)c2cc(Cl)ccc21 | 3.37 | 12.9 | 3.01 | 15.1 | 9.6 | > 100 |  |  | 3.05 | 14.2 | 9.64 | 67.4 | 5.29 | > 100 | 6.4 | 23.8 | 3.45 | 22.9 | 2.22 | 5.35
9 | COc1ccc2c(c1)C(=O)/C(=C/c1cccc(OCC(=O)Nc3nc(C)c(C)s3)c1)O2 |  |  | 1.34 | 2.98 | 0.121 | 0.67 | 0.171 | 2.66 | 0.0417 | 0.226 | 0.322 | 1.03 | 1.85 | 5.27 | 0.0168 | 0.0337 | 0.075 | 2.62 | 0.752 | 2.48
10 | CC(C)(C)NCC(O)COc1c(Br)c(Br)c(Br)c2c1OC(C)(C)C2 (configuration not stated) | 1.92 | 3.41 | 1.89 | 3.4 | 1.51 | 2.84 | 1.87 | 3.43 | 1.66 | 3.18 | 1.71 | 3.24 |  |  | 1.97 | 3.76 | 1.82 | 3.4 | 1.55 | 3.2
11 | COc1cc(C2=NN(C(C)=O)C(c3cc(OC)c(OC)c(OC)c3)C2)ccc1O (configuration not stated) | 0.42 | > 100 | 0.392 | > 100 | 0.383 | > 33.9 | 0.882 | > 100 | 0.304 | > 100 |  |  | 23.6 | > 100 | 0.342 |  | 0.32 | > 100 | 0.274 | 1.05
12 | CCC1=CCN(c2cc(C)ccn2)OC1c1ccccc1 (configuration not stated) |  | 46.2 |  | > 100 |  |  |  | > 100 |  |  |  | 80.8 |  | > 100 |  | > 100 |  | > 100 |  | > 100
13 | CC(=O)OC(C(=O)[O][Sn]([CH3])([CH3])[CH3])c1ccccc1 (configuration not stated) | > 100 | > 100 | > 100 | > 100 |  |  | > 100 | > 100 |  |  | > 100 | > 100 | > 100 | > 100 | 63.4 | > 100 | > 100 | > 100 | > 100 | > 100
14 | CCCCCCC(O)CC[C@H]1CCC[C@@H](C)N1 (some centres not stated) |  | > 31.6 |  | > 31.6 |  |  |  | > 100 |  |  |  | > 100 |  | > 100 |  | > 100 |  | < 10 |  | > 31.6
15 | O=c1c2c(-c3ccccc3)c3ccccc3nc2cnn1-c1ccccc1 |  | > 100 |  | > 100 |  |  |  | > 100 |  |  |  | > 100 |  | > 100 |  | > 100 |  | > 100 |  | > 100
16 | COc1ccc(/C=C2\CCC(CCN(C)C)(C3=CCCC3)C2=O)cc1 (configuration not stated) |  | 30.4 |  | 51.4 |  |  |  | 40.5 |  |  |  | 32.6 |  | 38.5 |  | 53 |  | 32.4 |  | 25.9
